Measured values taken from PMC13372681, “A natural depsipeptide antibiotic binds the E-site of the bacterial ribosome” (Nature, 2026).
Values after ≈ are worked out from the molar mass of the structure shown. Read-outs that look alike come from different tables or passages of the source. Where a SMILES comes first, the peptide text is derived from it. Bridges are numbered along the chain shown (N, C = ends). [ ]: non-standard residue; d: D form. dOrn = NCCC[C@@H](N)C(=O)O

Experiments:
HEK293 cells = assay: Mammalian cytotoxicity, Cell Titer Glo; format: cell-based, human; details: 48 h exposure, DMEM + 10% FBS, 1% DMSO, Cell Titer Glo 2.0 luminescence
Experimental: (§1) Mammalian culture was performed in Dulbecco Modified Eagle Medium (DMEM) supplemented with 10% fetal bovine serum (FBS), 2 mM L-glutamine, 100 units ml^−1 penicillin and 100 µg ml^−1 streptomycin. HEK293 cells (ATCC CRL-1573; generation 6) were seeded at 7,500 cells per well and HepG2 cells (ATCC HB8065; generation 18) were seeded at 4,000 cells per well in 384-well tissue culture-treated white plates in 50 µl DMEM and incubated for 18 h at 37 °C in the presence of 5% CO2. After 18 h of incubation, 500 nl of the compound and DMSO (1% final concentration) were added to the cells using a Labcyte Echo acoustic dispenser (Beckman Coulter). Cells were further incubated for 48 h and after that cell viability was assessed using Promega Cell Titer Glo 2.0 reagent (Fisher Scientific). Before incubating the plates at room temperature for 10 min, 50 µl of Cell Titer Glo was added directly to the medium. The plates were then shaken for 2 min. The Neo2 plate reader (Biotek) was used to read the luminescence through luminescent fibre. Cells that were either not treated or solely treated with DMSO were used as a control.

HepG2 cells = assay: Mammalian cytotoxicity, Cell Titer Glo; format: cell-based, human; details: 48 h exposure, DMEM + 10% FBS, 1% DMSO, Cell Titer Glo 2.0 luminescence
Experimental: as §1

## C[C@@H](O)[C@@H]1NC(=O)[C@@H](CCCNC(=N)N)NC(=O)[C@@H](CCCNC(=N)N)NC(=O)[C@@H](CC(N)=O)NC(=O)[C@@H](NC(=O)[C@@H](Cc2ccccc2)NC(=O)[C@@H](CCCN)NC(=O)[C@H](N)CCCNC(=N)N)[C@@H](C)OC(=O)[C@H](Cc2c[nH]cn2)NC1=O [MKM-A, manikomycin] (H-[dR][dOrn][dF]T[dN][dR][dR]TH; ester 4-C)
HEK293 cells
  HEK 293 (IC50): >256 µg/mL
HepG2 cells
  HepG2 (IC50): >256 µg/mL
E. coli C0617; C0617
  MIC: 8 µg/mL (≈ 6.76 µM)
E. coli C0617; broth microdilution, Ca+ MHB Medium, MDR clinical isolate
  MIC: 32 µg/mL (≈ 27 µM)
